We go through 17 molecules from patent US20240287076A1, “COMPOUNDS FOR TARGETING DEGRADATION OF BRUTON'S TYROSINE KINASE” (BIOGEN MA INC., priority 2021, published 2024).

The structures appear in SMILES notation. A value given as a limit tells only on which side of the number the result lay.

T1 sequence (Q06187 whole entry, the tested form may be a part): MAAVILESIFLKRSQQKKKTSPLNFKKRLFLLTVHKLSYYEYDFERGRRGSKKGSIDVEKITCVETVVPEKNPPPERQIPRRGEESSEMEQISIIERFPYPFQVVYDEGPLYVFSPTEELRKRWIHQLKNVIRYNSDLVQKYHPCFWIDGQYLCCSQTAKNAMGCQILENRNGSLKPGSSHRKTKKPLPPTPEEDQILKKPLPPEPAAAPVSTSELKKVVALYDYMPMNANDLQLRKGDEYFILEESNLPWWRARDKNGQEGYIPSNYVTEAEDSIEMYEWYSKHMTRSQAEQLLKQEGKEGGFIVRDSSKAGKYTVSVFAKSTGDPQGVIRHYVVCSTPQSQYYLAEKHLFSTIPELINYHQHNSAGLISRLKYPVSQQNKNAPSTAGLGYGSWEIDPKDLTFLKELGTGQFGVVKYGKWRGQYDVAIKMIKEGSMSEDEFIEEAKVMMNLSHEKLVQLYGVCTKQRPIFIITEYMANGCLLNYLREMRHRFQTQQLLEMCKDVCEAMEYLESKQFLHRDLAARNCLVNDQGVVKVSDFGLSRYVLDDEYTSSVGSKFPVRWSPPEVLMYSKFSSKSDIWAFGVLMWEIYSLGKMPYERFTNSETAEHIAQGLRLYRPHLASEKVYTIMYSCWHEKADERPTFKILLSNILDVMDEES

This test addresses T1, BTK (Homo sapiens, UniProt Q06187).
T1 construct: The GM01501.3 cell line endogenously expresses BTK with a HiBiT fusion tag via CRISPR knock-in at its C-terminal region; endogenous in cells; host or cells: GM01501.3 (GM01501 cells engineered by CRISPR knock-in of HiBiT at the BTK locus)
Nature of the test: BTK degradation assay using the HiBiT Method (Nano-Glo HiBiT Lytic Assay, GM01501.3 cells). To be noted: HiBiT Degradation on GM01501.3 BTK @ 6 hours. Format: cell-based. The protocol:
Selected compounds were tested in a BTK degradation assay using the HiBiT Method. Park Memorial Institute (RPM1) 1640 Medium with phenol red, L-Glutamine, Sodium Pyruvate, and fetal bovine serum (FBS) were purchased from Gibco (Grand Island, NY, USA). Nano-Glo® HiBiT Lytic Assay System was purchased from Promega (Madison, WI, USA). GM01501 cells were obtained from the NIGMS Human Genetic Cell Repository at the Coriell Institute for Medical Research. The GM01501.3 cell line endogenously expresses BTK with a HiBiT fusion tag via CRISPR knock-in at its C-terminal region. It was engineered by electroporation with the Neon Transfection System (Themo Fisher Scientific), according to manufacturer indications. Electroporation conditions: 1 pulse of 1,350 V for 30 ms for 0.5×10_6 cells. Cell culture flasks and 384-well microplates were acquired from VWR (Radnor, PA, USA). BTK degradation was evaluated by quantification of luminescent signal using Nano-Glo® HiBiT Lytic Assay kit. Test compounds were added to the 384-well plate from a top concentration of 10 μM with 11 points, half log titration in duplicates. GM01501.3 cells were added into 384-well plates at a cell density of 10,000 cells per well in a total volume of 30 μl. The plates were kept at 37° C. with 5% CO2 for 6 hours. Negative control wells included cells treated with DMSO only and positive control wells included only growing media, without Nano-Glo® HiBiT Lytic reagent. After a 6-hour incubation, Nano-Glo® HiBiT Lytic Assay reagent was added to the cells following manufacturer indications. Luminescence was acquired on EnVision™ Multilabel Reader (PerkinElmer, Santa Clara, CA, USA). […] “++++” represents a DC50 value of less than 100 nM. “+++” represents a DC50 value of 100 nM-500 nM. “++” represents a DC50 value of 500 nM-1000 nM. “+” represents a DC50 value of greater than 1000 nM.
Molecule `Cc1cc(-c2ncnn3cc(-c4ccc(CN5CCC(c6ccc(NC7CCC(=O)NC7=O)cc6)CC5)cc4)cc23)ccc1CNC(=O)c1noc(C(C)(C)C)n1` (racemic) [Example 1, 5-tert-butyl-N-[[4-[6-[4-[[4-[4-[(2,6-dioxo-3-piperidyl)amino]phenyl]-1-piperidyl]methyl]phenyl]pyrrolo[2,1-f][1,2,4]triazin-4-yl]-2-methyl-phenyl]methyl]-1,2,4-oxadiazole-3-carboxamide] showed a DC50 of under 100 nM.

The molecule `Cc1cc(-c2ncnn3cc(-c4ncc(CN5CCC(c6ccc(C7CCC(=O)NC7=O)cc6)CC5)cc4C)cc23)ccc1CNC(=O)c1noc(C(C)(C)C)n1` (centres unmarked) [Example 213, 5-(tert-butyl)-N-(4-(6-(5-((4-(4-(2,6-dioxopiperidin-3-yl)phenyl)piperidin-1-yl)methyl)-3-methylpyridin-2-yl)pyrrolo[2,1-f][1,2,4]triazin-4-yl)-2-methylbenzyl)-1,2,4-oxadiazole-3-carboxamide] showed a DC50 of under 100 nM. `Cn1nc(N2CCC(=O)NC2=O)c2ccc(C3CCN(Cc4ccc(-c5cc6nccc(-c7ccc(CNC(=O)N8CC(OC(C)(C)C)C8)c(F)c7)n6n5)cc4F)CC3)cc21` [Example 167, 3-tert-butoxy-N-[[4-[2-[4-[[4-[3-(2,4-dioxohexahydropyrimidin-1-yl)-1-methyl-indazol-6-yl]-1-piperidyl]methyl]-3-fluoro-phenyl]pyrazolo[1,5-a]pyrimidin-7-yl]-2-fluoro-phenyl]methyl]azetidine-1-carboxamide] returned a DC50 of under 100 nM. In turn, `CC(C)(C)c1nc(C(=O)NCc2ccc(-c3ncnn4cc(-c5ccc(CN6CCC(c7ccc(C8CCC(=O)NC8=O)cc7)CC6)cc5)cc34)cc2Cl)no1` (centres unmarked) [Example 46, 5-tert-butyl-N-[[2-chloro-4-[6-[4-[[4-[4-(2,6-dioxo-3-piperidyl)phenyl]-1-piperidyl]methyl]phenyl]pyrrolo[2,1-f][1,2,4]triazin-4-yl]phenyl]methyl]-1,2,4-oxadiazole-3-carboxamide] displayed a DC50 of under 100 nM. `Cc1cc(-c2ncnn3cc(-c4cnn(CCN5CCN(c6ccc(C7CCC(=O)NC7=O)cn6)CC5)c4)cc23)ccc1CNC(=O)c1noc(C(C)(C)C)n1` (centres unmarked) [Example 298, 5-(tert-butyl)-N-(4-(6-(1-(2-(4-(5-(2,6-dioxopiperidin-3-yl)pyridin-2-yl)piperazin-1-yl)ethyl)-1H-pyrazol-4-yl)pyrrolo[2,1-f] [1,2,4]triazin-4-yl)-2-methylbenzyl)-1,2,4-oxadiazole-3-carboxamide] had a DC50 of under 100 nM. Under `Cc1cc(-c2ncnn3cc(CCCCN4CCC(c5ccc(C6CCC(=O)NC6=O)cc5)CC4)cc23)ccc1CNC(=O)c1noc(C(C)(C)C)n1` (centres unmarked) [Example 128, 5-tert-butyl-N-[[4-[6-[4-[4-[4-(2,6-dioxo-3-piperidyl)phenyl]-1-piperidyl]butyl]pyrrolo[2,1-f][1,2,4]triazin-4-yl]-2-methyl-phenyl]methyl]-1,2,4-oxadiazole-3-carboxamide] stands under 100 nM; under `Cc1cc(-c2ncnn3cc(-c4ccc(CN5CCC(c6ccc(NC7CCC(=O)NC7=O)cc6)CC5)cc4)cc23)ccc1CNC(=O)c1ccc(Cl)cc1` (centres unmarked) [Example 62, 4-chloro-N-[[4-[6-[4-[[4-[4-[(2,6-dioxo-3-piperidyl)amino]phenyl]-1-piperidyl]methyl]phenyl]pyrrolo[2,1-f][1,2,4]triazin-4-yl]-2-methyl-phenyl]methyl]benzamide], under 100 nM; under `Cc1cc(-c2ncnn3cc(N4CCN(C(=O)CCCCCCCCNC(=O)c5ccc(OC6CCC(=O)NC6=O)cc5)CC4)cc23)ccc1CNC(=O)c1noc(C(C)(C)C)n1` (centres unmarked) [Example 180, 5-(tert-butyl)-N-(4-(6-(4-(9-(4-((2,6-dioxopiperidin-3-yl)oxy)benzamido)nonanoyl)piperazin-1-yl)pyrrolo[2,1-f][1,2,4]triazin-4-yl)-2-methylbenzyl)-1,2,4-oxadiazole-3-carboxamide], under 100 nM. For the molecule `CC(C)(C)c1nc(C(=O)NCc2ccc(-c3ncnn4cc(-c5ccc(CN6CCCC(Cc7ccc(OC8CCC(=O)NC8=O)cc7)C6)cn5)cc34)cc2F)no1` (centres unmarked) [Example 227, 5-(tert-butyl)-N-(4-(6-(5-((3-(4-((2,6-dioxopiperidin-3-yl)oxy)benzyl)piperidin-1-yl)methyl)pyridin-2-yl)pyrrolo[2,1-f][1,2,4]triazin-4-yl)-2-fluorobenzyl)-1,2,4-oxadiazole-3-carboxamide], the DC50 is 100 to 500 nM.

The molecule `CC(C)(C)c1nc(C(=O)NCc2ccc(-c3ncnn4cc(-c5ccc(CN6CCC(c7ccc(C8CCC(=O)NC8=O)cc7)CC6)cc5)cc34)cc2F)no1` (centres unmarked) [Example 42, 5-tert-butyl-N-[[4-[6-[4-[[4-[4-(2,6-dioxo-3-piperidyl)phenyl]-1-piperidyl]methyl]phenyl]pyrrolo[2,1-f][1,2,4]triazin-4-yl]-2-fluoro-phenyl]methyl]-1,2,4-oxadiazole-3-carboxamide] gave a DC50 of under 100 nM. Turning to `Cc1cc(-c2ncnn3cc(-c4ccc(CN5CCC(c6ccc(NC7CCC(=O)NC7=O)cc6)CC5)cc4)cc23)ccc1CNC(=O)c1ccc(C(C)C)nc1` (centres unmarked) [Example 69, N-[[4-[6-[4-[[4-[4-[(2,6-dioxo-3-piperidyl)amino]phenyl]-1-piperidyl]methyl]phenyl]pyrrolo[2,1-f][1,2,4]triazin-4-yl]-2-methyl-phenyl]methyl]-6-isopropyl-pyridine-3-carboxamide], the DC50 is under 100 nM. The molecule `Cc1cc(-c2ncnn3cc(-c4ccc(CN5CCC(Oc6ccc(NC7CCC(=O)NC7=O)cc6)CC5)cc4)cc23)ccc1CNC(=O)c1noc(C(C)(C)C)n1` (centres unmarked) [Example 201, 5-(tert-butyl)-N-(4-(6-(4-((4-(4-((2,6-dioxopiperidin-3-yl)amino)phenoxy)piperidin-1-yl)methyl)phenyl)pyrrolo[2,1-f][1,2,4]triazin-4-yl)-2-methylbenzyl)-1,2,4-oxadiazole-3-carboxamide] yielded a DC50 of under 100 nM. In turn, `Cc1cc(-c2ncnn3cc(CCN4CCC(c5ccc6c(N7CCC(=O)NC7=O)nn(C)c6c5)CC4)cc23)ccc1CNC(=O)c1cnn(C(C)(C)C)c1` [Example 258, 1-(tert-butyl)-N-(4-(6-(2-(4-(3-(2,4-dioxotetrahydropyrimidin-1(2H)-yl)-1-methyl-1H-indazol-6-yl)piperidin-1-yl)ethyl)pyrrolo[2,1-f][1,2,4]triazin-4-yl)-2-methylbenzyl)-1H-pyrazole-4-carboxamide] gave a DC50 of under 100 nM.

The molecule `Cc1cc(-c2ncnn3cc(-c4ccc(CNC5CCc6cc(NC7CCC(=O)NC7=O)ccc6C5)cc4)cc23)ccc1CNC(=O)c1noc(C(C)(C)C)n1` (centres unmarked) [Example 202, 5-(tert-butyl)-N-(4-(6-(4-(((6-((2,6-dioxopiperidin-3-yl)amino)-1,2,3,4-tetrahydronaphthalen-2-yl)amino)methyl)phenyl)pyrrolo[2,1-f][1,2,4]triazin-4-yl)-2-methylbenzyl)-1,2,4-oxadiazole-3-carboxamide] displayed a DC50 of under 100 nM. `Cc1cc(-c2ncnn3cc(CCN4CCC(c5ccc6c7c(cccc57)C(=O)N6C5CCC(=O)NC5=O)CC4)cc23)ccc1CNC(=O)c1noc(C(C)(C)C)n1` (centres unmarked) [Example 274, 5-(tert-butyl)-N-(4-(6-(2-(4-(1-(2,6-dioxopiperidin-3-yl)-2-oxo-1,2-dihydrobenzo[cd]indol-6-yl)piperidin-1-yl)ethyl)pyrrolo[2,1-f][1,2,4]triazin-4-yl)-2-methylbenzyl)-1,2,4-oxadiazole-3-carboxamide]: the DC50 was under 100 nM.

Molecule `Cc1cc(-c2ncnn3cc(-c4ccc5c(c4)CCN(CCc4ccc(NC6CCC(=O)NC6=O)cc4)C5)cc23)ccc1CNC(=O)c1noc(C(C)(C)C)n1` (centres unmarked) [Example 56, 5-tert-butyl-N-[[4-[6-[2-[2-[4-[(2,6-dioxo-3-piperidyl)amino]phenyl]ethyl]-3,4-dihydro-1H-isoquinolin-6-yl]pyrrolo[2,1-f][1,2,4]triazin-4-yl]-2-methyl-phenyl]methyl]-1,2,4-oxadiazole-3-carboxamide] returned a DC50 of under 100 nM. Under `Cc1cc(-c2ncnn3cc(-c4ccc(CN5CCC(c6ccc(NC7CCC(=O)NC7=O)cc6)CC5)cc4)cc23)ccc1CNC(=O)c1noc(C(C)(C)C)n1` (single isomer, unassigned; isomer 1) [Example 2, 5-tert-butyl-N-[[4-[6-[4-[[4-[4-[(2,6-dioxo-3-piperidyl)amino]phenyl]-1-piperidyl]methyl]phenyl]pyrrolo[2,1-f][1,2,4]triazin-4-yl]-2-methyl-phenyl]methyl]-1,2,4-oxadiazole-3-carboxamide isomer 1] stands under 100 nM.
